Assay results taken from patent publication US9926297B2, “Bicyclic AZA compounds as muscarinic M1 receptor and/or M4 receptor agonists” (Heptares Therapeutics Limited, priority 2014, dated 2018).
Like-named read-outs stand apart in the source and are kept apart here.

Key:
[1] = target: T1, human muscarinic M1 receptor (Homo sapiens, UniProt P11229); test: Alphascreen Surefire phospho-ERK1/2 functional assay, M1; type: cell-based; conditions: for EC50 / % Emax cf. ACh, M1: CHO cells stably expressing human M1; for EC50: phospho-ERK1/2, * = variable results, read-out: pEC50 M1 (converted); for Emax: CHO
T1 sequence (P11229 1-460): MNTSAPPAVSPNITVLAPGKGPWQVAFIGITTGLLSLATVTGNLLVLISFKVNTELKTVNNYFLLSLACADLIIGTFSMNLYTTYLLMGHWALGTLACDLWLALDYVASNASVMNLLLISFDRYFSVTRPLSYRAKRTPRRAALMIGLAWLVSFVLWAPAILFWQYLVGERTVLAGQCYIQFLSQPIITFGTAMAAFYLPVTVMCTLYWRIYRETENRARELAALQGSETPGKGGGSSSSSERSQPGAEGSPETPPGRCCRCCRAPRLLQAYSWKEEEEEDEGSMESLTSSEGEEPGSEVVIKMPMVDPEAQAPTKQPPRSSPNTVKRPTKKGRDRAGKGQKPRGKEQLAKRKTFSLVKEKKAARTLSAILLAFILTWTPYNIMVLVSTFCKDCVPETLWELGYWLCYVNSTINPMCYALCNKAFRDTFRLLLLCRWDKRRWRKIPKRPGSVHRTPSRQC

[2] = target: T2, human muscarinic M4 receptor (Homo sapiens, UniProt P08173); test: Alphascreen Surefire phospho-ERK1/2 functional assay, M4; type: cell-based; conditions: for EC50 / % Emax cf. ACh, M4: CHO cells stably expressing human M4; for EC50: phospho-ERK1/2, * = variable results, read-out: pEC50 M4 (converted); for Emax: CHO; for selectivity for the M4 receptor relative to the M1 receptor: functional assay of Example A
T2 construct: expressed in transfected cells
T2 sequence (P08173 1-479): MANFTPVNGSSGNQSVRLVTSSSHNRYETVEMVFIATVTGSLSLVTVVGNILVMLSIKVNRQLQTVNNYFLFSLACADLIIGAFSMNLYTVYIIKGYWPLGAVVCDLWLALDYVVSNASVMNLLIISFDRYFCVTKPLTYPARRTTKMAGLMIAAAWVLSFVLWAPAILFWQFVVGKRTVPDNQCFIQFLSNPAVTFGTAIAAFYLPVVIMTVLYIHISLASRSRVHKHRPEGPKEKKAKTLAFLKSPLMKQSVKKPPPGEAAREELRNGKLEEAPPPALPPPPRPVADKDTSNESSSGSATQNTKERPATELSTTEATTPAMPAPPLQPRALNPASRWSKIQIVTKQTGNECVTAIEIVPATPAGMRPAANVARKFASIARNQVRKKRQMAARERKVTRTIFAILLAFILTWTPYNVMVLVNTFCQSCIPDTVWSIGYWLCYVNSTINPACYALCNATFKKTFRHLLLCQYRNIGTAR

[3] = read-out: % Emax cf. ACh, M1, CHO cells stably expressing human M1, relative to ACh
[4] = read-out: % Emax cf. ACh, M4, CHO cells stably expressing human M4, relative to ACh

SMILES | EC50 [1] | Emax [1, 3] | EC50 [2] | Emax [2, 4] | % Emax cf. ACh, M1 ([1]; relative to ACh) | % Emax cf. ACh, M4 ([2]; relative to ACh) | selectivity for the M4 receptor relative to the M1 receptor [2] | Emax ([1]; read-out: % Emax cf. ACh, M1) | Emax ([2]; read-out: % Emax cf. ACh, M4)
CCOC(=O)N1CCC2(CC(N3CCC(c4nnco4)CC3)C2)C1 (single isomer, unassigned) [1-28 Isomer 2, ethyl 2-[4-(1,3,4-oxadiazol-2-yl)piperidin-1-yl]-6-azaspiro[3.4]octane-6-carboxylate] | 2000 nM | 57% | 501 nM | 60% | – | – | – | – | –
CCOC(=O)N1CCC2(CC(N3CCC(c4nc(C)no4)CC3)C2)C1 (single isomer, unassigned) [1-29 Isomer 2, ethyl 2-[4-(3-methyl-1,2,4-oxadiazol-5-yl)piperidin-1-yl]-6-azaspiro[3.4]octane-6-carboxylate] | 794 nM | 44% | 126 nM | 36% | – | – | – | – | –
CCOC(=O)N1CCC2(CC(N3CCC(c4c(C)cnn4CC)CC3)C2)C1 (single isomer, unassigned) [1-59 Isomer 2, ethyl 2-[4-(1-ethyl-4-methyl-1H-pyrazol-5-yl)piperidin-1-yl]-6-azaspiro[3.4]octane-6-carboxylate] | 398 nM | 38% | 100 nM | 76% | – | – | – | – | –
CCn1nccc1C1CCN(C2CC3(CCN(C(=O)OC)C3)C2)CC1 (single isomer, unassigned) [1-46 Isomer 2, methyl 2-[4-(1-ethyl-1H-pyrazol-5-yl)piperidin-1-yl]-6-azaspiro[3.4]octane-6-carboxylate] | > 20000 nM | 35% | 200 nM | 63% | – | – | – | – | –
COC(=O)N1CCC2(CC(N3CCC(c4ncc(C)n4C)CC3)C2)C1 (stereo not shown) [Example 1-9, methyl 2-[4-(1,5-dimethyl-1H-imidazol-2-yl)piperidin-1-yl]-6-azaspiro[3.4]octane-6-carboxylate] | – | – | – | – | – | – | highly selective for the M4 receptor relative to the M1 receptor | – | –
CCOC(=O)N1CCC2(CC(N3CCC([C@@H]4CCCN4c4nncs4)CC3)C2)C1 (single isomer, unassigned) [2-83 Isomer 2] | 3980 nM | 55% | 10 nM | 100% | – | – | – | – | –
CCOC(=O)N1CCC2(CC(N3CCC(c4cc(N)n[nH]4)CC3)C2)C1 (single isomer, unassigned) [1-19 Isomer 2, ethyl 2-[4-(3-amino-1H-pyrazol-5-yl)piperidin-1-yl]-6-azaspiro[3.4]octane-6-carboxylate] | 794 nM | 83% | 7940 nM | 48% | – | – | – | – | –
COC(=O)N1CCC2(CC(N3CCC(c4nccn4C)CC3)C2)C1 (stereo not shown) [Example 1-6, methyl 2-[4-(1-methyl-1H-imidazol-2-yl)piperidin-1-yl]-6-azaspiro[3.4]octane-6-carboxylate] | – | – | – | – | – | – | highly selective for the M4 receptor relative to the M1 receptor | – | –
CCOC(=O)N1CCC2(CC(N3CCC(c4nnn(CC)n4)CC3)C2)C1 (single isomer, unassigned) [1-66 Isomer 2, ethyl 2-[4-(2-ethyl-2H-tetrazol-5-yl)piperidin-1-yl]-6-azaspiro[3.4]octane-6-carboxylate] | > 20000 nM | 14% | 251 nM | 32% | – | – | – | – | –
CCC(=O)N1CCCC1C1CCN(C2CC3(CCN(C(=O)OC)C3)C2)CC1 (single isomer, unassigned) [2-5 Isomer 2, methyl 2-[4-(1-propanoylpyrrolidin-2-yl)piperidin-1-yl]-6-azaspiro[3.4]octane-6-carboxylate] | 6310 nM | 34% | 158 nM | 66% | – | – | – | – | –
CCOC(=O)N1CCC2(CC(N3CCC(N4CC[C@H](F)C4)CC3)C2)C1 (single isomer, unassigned) [2-99 Isomer 2] | > 20000 nM | 18% | 158 nM | 54% | – | – | – | – | –
CCOC(=O)N1CCC2(CC(N3CCC(c4ncc(C)n4C)CC3)C2)C1 (single isomer, unassigned) [1-10 Isomer 2, ethyl 2-[4-(1,5-dimethyl-1H-imidazol-2-yl)piperidin-1-yl]-6-azaspiro[3.4]octane-6-carboxylate] | 5010 nM | 62% | 251 nM | 106% | – | – | – | – | –
CCOC(=O)N1CCC2(CC(N3CCC(O)(c4ncc[nH]4)CC3)C2)C1 (single isomer, unassigned) [1-37 Isomer 2, ethyl 2-[4-hydroxy-4-(1 H-imidazol-2-yl)piperidin-1-yl]-6-azaspiro[3.4]octane-6-carboxylate] | 2510 nM | – | 501 nM | – | – | – | – | 78% | 126%
CCOC(=O)N1CCC2(CC(N3CCC([C@@H]4CCCN4C(=O)NC)CC3)C2)C1 (stereo partly drawn) [Example 2-17, ethyl 2-{4-[(2S)-1-(methylcarbamoyl)pyrrolidin-2-yl]piperidin-1-yl}-6-azaspiro[3.4]octane-6-carboxylate] | – | – | – | – | – | – | highly selective for the M4 receptor relative to the M1 receptor | – | –
CCOC(=O)N1CCC2(CC(N3CCC(c4ccnn4C)CC3)C2)C1 (stereo not shown) [Example 1-21, ethyl 2-[4-(1-methyl-1H-pyrazol-5-yl)piperidin-1-yl]-6-azaspiro[3.4]octane-6-carboxylate] | – | – | – | – | – | – | highly selective for the M4 receptor relative to the M1 receptor | – | –

Now from value to molecule, other results behind:

EC50 [1] | Emax [1, 3] | EC50 [2] | Emax [2, 4] | % Emax cf. ACh, M1 ([1]; relative to ACh) | % Emax cf. ACh, M4 ([2]; relative to ACh) | SMILES | selectivity for the M4 receptor relative to the M1 receptor [2] | Emax ([1]; read-out: % Emax cf. ACh, M1) | Emax ([2]; read-out: % Emax cf. ACh, M4)
> 20000 nM | – | 69.2 nM | – | 10% | 47% | CCOC(=O)N1CCC2(CC(N3CCC(C4CCCNC4=O)CC3)C2)C1 (single isomer, unassigned) [4-1 Isomer 2, ethyl 2-(2-oxo-3,4′-bipiperidin-1′-yl)-6-azaspiro[3.4]octane-6-carboxylate] | – | – | –
> 20000 nM | 15% | 12.6 nM | 90% | – | – | CCOC(=O)N1CCC2(CC(N3CCC(N4C[C@@H](F)C[C@@H]4C(=O)OC)CC3)C2)C1 (single isomer, unassigned) [2-135 Isomer 2] | – | – | –
> 20000 nM | 11% | 10 nM | 72% | – | – | CCOC(=O)N1CCC2(CC(N3CCC(N4CCCC4c4ccon4)CC3)C2)C1 (single isomer, unassigned) [2-127 Isomer 2, ethyl 2-{4-[2-(1,2-oxazol-3-yl)pyrrolidin-1-yl]piperidin-1-yl}-6-azaspiro[3.4]octane-6-carboxylate] | – | – | –
79.4 nM | – | 0.631 nM | – | 69% | 118% | CCOC(=O)N1CCC2(CC(N3CCC([C@@H]4CCCN4C(=O)N4Cc5cccnc5C4)CC3)C2)C1 (single isomer, unassigned) [2-133 Isomer 2] | – | – | –
10000 nM | 70% | 631 nM | 98% | – | – | CCOC(=O)N1CCC2(CC(N3CCC(N4CCC[C@H]4C(F)(F)F)CC3)C2)C1 (single isomer, unassigned) [2-101 Isomer 2] | – | – | –
1000 nM | 94% | 158 nM | 105% | – | – | CCOC(=O)N1CCC2(CC(N3CCC(N4CCCC[C@@H]4C(=O)NC)CC3)C2)C1 (single isomer, unassigned) [4-16 Isomer 2] | – | – | –
> 20000 nM | 54% | 200 nM | 55% | – | – | CCOC(=O)N1CCC2(CC(N3CCC(N4CCOCC4)CC3)C2)C1 (single isomer, unassigned) [4-11 Isomer 2, ethyl 2-[4-(morpholin-4-yl)piperidin-1-yl]-6-azaspiro[3.4]octane-6-carboxylate] | – | – | –
1000 nM | 31% | 200 nM | 60% | – | – | CCOC(=O)N1CCC2(CC(N3CCC(N4C(=O)OC[C@@H]4C)CC3)C2)C1 (single isomer, unassigned) [2-121 Isomer 2] | – | – | –
3160 nM | – | 501 nM | 65% | 65% | – | CCOC(=O)N1CCC2(CC(N3CCC(c4c(C)cc[nH]c4=O)CC3)C2)C1 (single isomer, unassigned) [3-14 Isomer 1, ethyl 2-[4-(4-methyl-2-oxo-1,2-dihydropyridin-3-yl)piperidin-1-yl]-6-azaspiro[3.4]octane-6-carboxylate] | – | – | –
126 nM | 103% | 7.94 nM | 114% | – | – | CCOC(=O)N1CCC2(CC(N3CCC(N4C(=O)CC[C@H]4CC)CC3)C2)C1 (single isomer, unassigned) [2-114 Isomer 2] | – | – | –
